Data from patent publication US20230192644A1, “PIPERIDINE-2,6-DIONES AS SMALL MOLECULE DEGRADERS OF HELIOS AND METHODS OF USE” (DANA-FARBER CANCER INSTITUTE, INC., priority 2020, published 2023).
Like-named read-outs stand apart in the source and are kept apart here.

Assays:
Format in all cases: cell-based
IKZF1 [1] = molecular target: T1, IKZF1 (Homo sapiens, UniProt Q13422); assay: GFP-IKZF1 cellular degradation assay (eGFP fusion/mCherry reporter, Flip-In 293 cells)
T1 construct: expressed in transfected cells
T1 sequence (Q13422 83-213 isoform Q13422-7 limits assumed): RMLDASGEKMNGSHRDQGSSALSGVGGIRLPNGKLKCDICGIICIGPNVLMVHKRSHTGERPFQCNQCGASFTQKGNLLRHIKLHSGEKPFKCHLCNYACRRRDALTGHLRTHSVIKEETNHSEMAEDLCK
T1 sequence (Q96SW2 whole entry partner, the tested form may be a part): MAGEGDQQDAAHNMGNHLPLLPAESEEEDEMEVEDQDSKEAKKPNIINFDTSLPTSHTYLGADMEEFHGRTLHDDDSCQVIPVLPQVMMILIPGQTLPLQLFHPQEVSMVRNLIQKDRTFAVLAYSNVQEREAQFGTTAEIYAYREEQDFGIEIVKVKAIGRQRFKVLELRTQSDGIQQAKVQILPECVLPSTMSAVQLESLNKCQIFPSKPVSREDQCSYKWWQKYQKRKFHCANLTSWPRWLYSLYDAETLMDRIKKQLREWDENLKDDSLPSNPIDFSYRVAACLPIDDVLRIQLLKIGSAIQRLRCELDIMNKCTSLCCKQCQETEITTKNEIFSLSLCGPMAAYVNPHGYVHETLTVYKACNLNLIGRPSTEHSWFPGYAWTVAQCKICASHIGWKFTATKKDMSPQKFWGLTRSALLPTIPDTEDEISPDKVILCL
T1 sequence (Q16531 whole entry partner, the tested form may be a part): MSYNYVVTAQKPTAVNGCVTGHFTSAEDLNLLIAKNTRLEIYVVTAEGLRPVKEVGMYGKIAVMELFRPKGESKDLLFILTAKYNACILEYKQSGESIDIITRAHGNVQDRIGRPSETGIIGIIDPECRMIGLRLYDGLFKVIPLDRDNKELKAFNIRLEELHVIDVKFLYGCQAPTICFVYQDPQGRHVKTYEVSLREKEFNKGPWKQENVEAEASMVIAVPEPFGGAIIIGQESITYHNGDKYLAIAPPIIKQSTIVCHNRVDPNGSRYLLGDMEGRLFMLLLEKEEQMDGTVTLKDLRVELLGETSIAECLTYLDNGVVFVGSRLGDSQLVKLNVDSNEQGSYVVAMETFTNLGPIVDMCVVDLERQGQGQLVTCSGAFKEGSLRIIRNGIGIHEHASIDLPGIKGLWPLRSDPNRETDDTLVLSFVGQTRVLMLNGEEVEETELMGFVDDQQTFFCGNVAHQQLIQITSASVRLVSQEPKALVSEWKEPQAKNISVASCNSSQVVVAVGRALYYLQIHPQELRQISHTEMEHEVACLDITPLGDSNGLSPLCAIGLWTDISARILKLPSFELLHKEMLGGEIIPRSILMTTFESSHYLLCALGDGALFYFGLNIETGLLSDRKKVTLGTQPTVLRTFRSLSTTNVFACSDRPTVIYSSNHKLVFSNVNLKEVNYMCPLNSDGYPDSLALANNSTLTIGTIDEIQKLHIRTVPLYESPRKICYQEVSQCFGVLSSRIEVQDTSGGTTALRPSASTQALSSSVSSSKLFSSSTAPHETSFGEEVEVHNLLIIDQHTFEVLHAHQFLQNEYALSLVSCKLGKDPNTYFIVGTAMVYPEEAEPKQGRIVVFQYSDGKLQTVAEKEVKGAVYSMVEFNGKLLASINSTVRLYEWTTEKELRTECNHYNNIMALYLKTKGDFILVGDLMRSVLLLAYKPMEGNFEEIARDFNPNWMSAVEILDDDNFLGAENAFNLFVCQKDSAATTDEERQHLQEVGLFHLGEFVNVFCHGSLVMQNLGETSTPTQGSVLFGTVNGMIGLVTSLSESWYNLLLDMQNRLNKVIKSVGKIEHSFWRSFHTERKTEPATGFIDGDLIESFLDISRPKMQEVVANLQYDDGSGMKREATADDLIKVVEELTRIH
Description: IKZF1A and IKZF2A were subcloned into mammalian pcDNA5/FRT Vector (Ampicillin and Hygromycin B resistant) modified to contain MCS-eGFP-P2A-mCherry. […] Following 2-3 passage cycle, FACS (FACSAria™ II, BD) was used to enrich for cells expressing eGFP and mCherry.
(§1) Cells stably expressing the IKZF1A, or IKZF2A GFP fusions with mCherry reporter were seeded at 30-50% confluency in 384-well plates with 50 μL FluoroBrite™ DMEM media (Thermo Fisher Scientific™ A18967) containing 10% FBS per well a day before compound treatment. Compound titrations were dispensed using a D300e Digital Dispenser (HP), normalized to 0.5% DMSO, and incubated with cells for 5 hours.
The assay plate was imaged immediately using an Acumen High Content Imager (TTP Labtech) with 488 nm and 561 nm lasers in 2 μm×1 μm grid per well format. […] A series of image analysis steps (‘image analysis pipeline’) was constructed. First, the red and green channels were aligned and cropped to target the middle of each well (to avoid analysis of heavily clumped cells at the edges), and a background illumination function was calculated for both red and green channels of each well individually and subtracted to correct for illumination variations across the 384-well plate from various sources of error. An additional step was then applied to the green channel to suppress the analysis of large auto fluorescent artifacts and enhance the analysis of cell specific fluorescence by way of selecting for objects under a given size, 30 A.U., and with a given shape, speckles. mCherry-positive cells were then identified in the red channel filtering for objects between 8-60 pixels in diameter and using intensity to distinguish between clumped objects. The green channel was then segmented into GFP positive and negative areas and objects were labeled as GFP positive if at least 40% of it overlapped with a GFP positive area. The fraction of GFP-positive cells/mCherry-positive cells in each well was then calculated, and the green and red images were rescaled for visualization. The concentrations that lead to half degradation at 5 h (DC50, 5h) were calculated using the nonlinear fit variable slope model (GraphPad Software).

IKZF2 [2] = assay: GFP-IKZF2 cellular degradation assay (eGFP fusion/mCherry reporter, Flip-In 293 cells); conditions: Flip-In 293 cells stably expressing IKZF2 GFP fusion with mCherry reporter, 5 h
Description: IKZF1A and IKZF2A were subcloned into mammalian pcDNA5/FRT Vector (Ampicillin and Hygromycin B resistant) modified to contain MCS-eGFP-P2A-mCherry. Stable cell lines expressing eGFP-protein fusion and mCherry reporter were generated using Flip-In 293 system. Plasmid (0.3 μg) and pOG44 (4.7 μg) DNA were preincubated in 100 μL of Opti-MEM™ I (Gibco™, Life Technologies™) media containing 0.05 mg/mL Lipofectamine™ 2000 (Invitrogen™) for 20 min and added to Flip-In 293 cells containing 1.9 mL of DMEM media (Gibco™, Life Technologies™) per well in a 6-well plate format (Falcon, 353046). Cells were propagated for 48 h and were then transferred into a 10 cm^2 plate (Corning, 430165) in DMEM media containing 50 μg/mL of Hygromycin B (REF 10687010, Invitrogen™) as a selection marker. Following 2-3 passage cycle, FACS (FACSAria™ II, BD) was used to enrich for cells expressing eGFP and mCherry.
as §1
The assay plate was imaged immediately using an Acumen High Content Imager (TTP Labtech) with 488 nm and 561 nm lasers in […] per well format. The resulting images were analyzed using CellProfiler (Carpenter et al., Genome Biol. 2006, 7:R100). A series of image analysis steps (‘image analysis pipeline’) was constructed. First, the red and green channels were aligned and cropped to target the middle of each well (to avoid analysis of heavily clumped cells at the edges), and a background illumination function was calculated for both red and green channels of each well individually and subtracted to correct for illumination variations across the 384-well plate from various sources of error. An additional step was then applied to the green channel to suppress the analysis of large auto fluorescent artifacts and enhance the analysis of cell specific fluorescence by way of selecting for objects under a given size, 30 A.U., and with a given shape, speckles. mCherry-positive cells were then identified in the red channel filtering for objects between 8-60 pixels in diameter and using intensity to distinguish between clumped objects. The green channel was then segmented into GFP positive and negative areas and objects were labeled as GFP positive if at least 40% of it overlapped with a GFP positive area. The fraction of GFP-positive cells/mCherry-positive cells in each well was then calculated, and the green and red images were rescaled for visualization. The concentrations that lead to half degradation at 5 h (DC50, 5h) were calculated using the nonlinear fit variable slope model (GraphPad Software).

IKZF1 [3] = molecular target: T2, IKZF1 (Homo sapiens, UniProt Q13422+Q96SW2); assay: HiBit-IKZF1 degradation assay in Molt4 cells
T2 construct: knocked into the endogenous IKZF2 or IKZF1 locus of Molt4 cells; endogenous in cells; host or cells: Molt4 (CRISPR/Cas9 HiBit knock-in)
T2 sequence (Q13422 whole entry): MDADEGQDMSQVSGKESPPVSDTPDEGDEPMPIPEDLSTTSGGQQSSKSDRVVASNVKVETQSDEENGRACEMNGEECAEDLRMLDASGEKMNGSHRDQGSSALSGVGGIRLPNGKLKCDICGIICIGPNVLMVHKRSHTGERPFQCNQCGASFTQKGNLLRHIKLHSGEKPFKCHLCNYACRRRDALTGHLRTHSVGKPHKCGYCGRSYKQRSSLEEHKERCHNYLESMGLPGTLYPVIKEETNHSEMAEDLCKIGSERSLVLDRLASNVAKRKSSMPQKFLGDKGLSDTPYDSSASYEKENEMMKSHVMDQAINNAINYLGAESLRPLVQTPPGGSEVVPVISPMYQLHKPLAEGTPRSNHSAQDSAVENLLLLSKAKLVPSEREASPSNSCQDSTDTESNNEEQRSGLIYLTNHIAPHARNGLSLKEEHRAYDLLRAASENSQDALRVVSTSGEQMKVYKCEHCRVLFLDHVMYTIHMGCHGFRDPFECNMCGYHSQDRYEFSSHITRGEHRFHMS
T2 sequence (Q96SW2 whole entry): as the sequence (Q96SW2 whole entry partner, the tested form may be a part) above
T2 sequence (Q16531 whole entry partner): as the sequence (Q16531 whole entry partner, the tested form may be a part) above
Description: (§2) The HiBit tag was knocked into the endogenous IKZF2 or IKZF1 locus of Molt4 cells to generate a HiBit-IKZF2 or HiBit-IKZF1 fusion proteins via CRISPR/Cas9 gene editing. Cells were then treated with a 12 point concentration curve of the indicated compounds, and luminescence (corresponding to Helios abundance) was detected after 6 hours using the Nano-Glo® HiBit Lytic Detection system (Promega™). The concentration necessary to achieve 50% degradation (DC50) was calculated using Prism (GraphPad).

IKZF2 [4] = molecular target: T3, IKZF2 (Homo sapiens, UniProt Q96SW2+Q9UKS7); assay: HiBit-IKZF2 degradation assay in Molt4 cells
T3 construct: knocked into the endogenous IKZF2 or IKZF1 locus of Molt4 cells; endogenous in cells; host or cells: Molt4 (CRISPR/Cas9 HiBit knock-in)
T3 sequence (Q9UKS7 whole entry): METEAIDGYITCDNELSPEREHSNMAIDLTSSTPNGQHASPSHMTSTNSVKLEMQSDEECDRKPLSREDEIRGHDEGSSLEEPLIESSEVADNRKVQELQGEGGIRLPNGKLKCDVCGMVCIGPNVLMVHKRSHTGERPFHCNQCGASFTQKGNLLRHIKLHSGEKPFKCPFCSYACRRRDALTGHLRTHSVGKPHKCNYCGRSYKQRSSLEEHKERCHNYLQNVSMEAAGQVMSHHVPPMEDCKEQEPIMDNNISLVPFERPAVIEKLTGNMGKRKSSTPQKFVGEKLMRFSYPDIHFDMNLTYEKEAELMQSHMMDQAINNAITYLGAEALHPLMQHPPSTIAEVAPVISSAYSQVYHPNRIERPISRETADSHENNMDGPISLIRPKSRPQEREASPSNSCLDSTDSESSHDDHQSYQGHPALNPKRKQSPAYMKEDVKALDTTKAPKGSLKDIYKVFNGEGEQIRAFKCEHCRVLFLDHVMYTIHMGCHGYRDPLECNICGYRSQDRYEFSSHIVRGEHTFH
T3 sequence (Q96SW2 whole entry): as the sequence (Q96SW2 whole entry partner, the tested form may be a part) above
T3 sequence (Q16531 whole entry partner): as the sequence (Q16531 whole entry partner, the tested form may be a part) above
Description: as §2

[5] = Flip-In 293 cells stably expressing IKZF1 GFP fusion with mCherry reporter, 5 h; read-out: GFP IKZF1 DC50
[6] = read-out: GFP IKZF1 DC50; Flip-In 293 cells stably expressing IKZF1 GFP fusion with mCherry reporter, 5 h
[7] = read-out: IKZF1 DC50; Molt4 cells with endogenous HiBit-IKZF1 knock-in, 6 hours, Nano-Glo HiBit luminescence
[8] = read-out: IKZF2 DC50; Molt4 cells with endogenous HiBit-IKZF2 knock-in, 6 hours, Nano-Glo HiBit luminescence

Structure (SMILES)	DC50 (IKZF1 [1]; [5]) [µM]	DC50 (IKZF2 [2]) [µM]	other results
CC(CC(=O)Nc1cccnc1Cl)c1cccc(NC2=CC(=O)N(C3CCC(=O)NC3=O)C2=O)c1 (centres unmarked) [Compound 7]	0.023	0.048	–
CC(CC(=O)Nc1ccc(Cl)nc1)c1cccc(NC2=CC(=O)N(C3CCC(=O)NC3=O)C2=O)c1 (centres unmarked) [Compound 8]	0.01	0.017	–
CC(CC(=O)Nc1ccnc(Cl)c1)c1cccc(NC2=CC(=O)N(C3CCC(=O)NC3=O)C2=O)c1 (centres unmarked) [Compound 9]	0.08	0.085	–
Cc1ccc(NC(=O)CC2(c3cccc(NC4=CC(=O)N(C5CCC(=O)NC5=O)C4=O)c3)CCOCC2)cc1Cl (centres unmarked) [Compound 18]	0.039	0.0088	–
Cc1ccc(NC(=O)C2CC2c2cccc(NC3=CC(=O)N(C4CCC(=O)NC4=O)C3=O)c2)cc1Cl (centres unmarked) [Compound 21]	0.002	0.0044	–
O=C1CCC(N2C(=O)C=C(Nc3cccc(C4CC(C(=O)Nc5cccc(C(F)(F)F)c5)C4)c3)C2=O)C(=O)N1 (centres unmarked) [Compound 22]	0.014	0.134	–
O=C1CCC(N2C(=O)C=C(Nc3cccc([C@H]4CNCC4C(=O)Nc4cccc(C(F)(F)F)c4)c3)C2=O)C(=O)N1 (some centres unmarked) [Compound 23]	0.038	0.101	–
CC(c1cccc(NC2=CC(=O)N(C3CCC(=O)NC3=O)C2=O)c1)N1CC(c2ccccc2)C1 (centres unmarked) [Compound 25]	0.0058	0.013	–
CC(c1cccc(NC2=CC(=O)N(C3CCC(=O)NC3=O)C2=O)c1)N1CC(Cc2ccccc2)C1 (centres unmarked) [Compound 26]	0.0028	0.0089	–
CC(c1cccc(NC2=CC(=O)N(C3CCC(=O)NC3=O)C2=O)c1)N1CC(Oc2ccccc2)C1 (centres unmarked) [Compound 27]	0.0064	0.019	–
Cc1ccc(NC(=O)CC(c2cccc(NC3=CC(=O)N(C4CCC(=O)NC4=O)C3=O)c2)C(C)C)cc1Cl (centres unmarked) [Compound 30, N-(3-chloro-4-methylphenyl)-3-(3-((1-(2,6-dioxopiperidin-3-yl)-2,5-dioxo-2,5-dihydro-1H-pyrrol-3-yl)amino)phenyl)-4-methylpentanamide]	0.05	0.0022	–
Cc1ccc(NC(=O)CN(C)c2cccc(NC3=CC(=O)N(C4CCC(=O)NC4=O)C3=O)c2)cc1Cl (centres unmarked) [Compound 44, N-(3-chloro-4-methylphenyl)-2-[(3-{[1-(2,6-dioxopiperidin-3-yl)-2,5-dioxo-2,5-dihydro-1H-pyrrol-3-yl]amino}phenyl)(methyl)amino]acetamide]	0.0037	0.0069	–
CN(CCc1ccc(C(F)(F)F)c(Cl)c1)Cc1cccc(NC2=CC(=O)N(C3CCC(=O)NC3=O)C2=O)c1 (centres unmarked) [Compound 48, 3-(3-((-(((3-chloro-4-(trifluoromethyl)phenethyl)(methyl)amino)methyl)phenyl)amino)-2,5-dioxo-2,5-dihydro-1H-pyrrol-1-yl)piperidine-2,6-dione]	–	0.019	DC50 (IKZF1 [1]; [6]): 0.0037 µM
CCC(NCCc1ccc(C(F)(F)F)c(Cl)c1)c1cccc(NC2=CC(=O)N(C3CCC(=O)NC3=O)C2=O)c1 (centres unmarked) [Compound 60, 3-(3-((3-(1-((3-chloro-4-(trifluoromethyl)phenethyl)-amino)propyl)phenyl)amino)-2,5-dioxo-2,5-dihydro-1H-pyrrol-1-yl)piperidine-2,6-dione]	–	0.006	DC50 (IKZF1 [1]; [6]): 0.018 µM; DC50 (IKZF1 [3]; [7]): 0.24 µM; DC50 (IKZF2 [4]; [8]): 0.042 µM
CC(C)(NCc1cccc(C(F)(F)F)c1)c1cccc(NC2=CC(=O)N(C3CCC(=O)NC3=O)C2=O)c1 (centres unmarked) [Compound 64]	0.0068	0.0092	–
CC(C)(NCCc1ccc(C(F)(F)F)c(Cl)c1)c1cccc(NC2=CC(=O)N(C3CCC(=O)NC3=O)C2=O)c1 (centres unmarked) [Compound 66, 3-(3-((3-(2-((3-chloro-4-(trifluoromethyl)phenethyl)amino)propan-2-yl)phenyl)amino)-2,5-dioxo-2,5-dihydro-1H-pyrrol-1-yl)piperidine-2,6-dione]	–	0.0012	DC50 (IKZF1 [1]; [6]): 0.0011 µM; DC50 (IKZF1 [3]; [7]): 0.0038 µM; DC50 (IKZF2 [4]; [8]): 0.0023 µM
CN(CCc1ccc(C(F)(F)F)c(Cl)c1)C(C)(C)c1cccc(NC2=CC(=O)N(C3CCC(=O)NC3=O)C2=O)c1 (centres unmarked) [Compound 67, 3-(3-((3-(2-((3-chloro-4-(trifluoromethyl)phenethyl)(methyl)amino)propan-2-yl)phenyl)-amino)-2,5-dioxo-2,5-dihydro-1H-pyrrol-1-yl)piperidine-2,6-dione]	0.011	0.012	DC50 (IKZF1 [3]; Molt4 cells with endogenous HiBit-IKZF1 knock-in, 6 hours, Nano-Glo HiBit luminescence; read-out: IKZF1 DC50): 0.047 µM; DC50 (IKZF2 [4]; Molt4 cells with endogenous HiBit-IKZF2 knock-in, 6 hours, Nano-Glo HiBit luminescence; read-out: IKZF2 DC50): 0.025 µM
CN(C)CC(CC(=O)Nc1ccc(C(F)(F)F)c(Cl)c1)c1cccc(NC2=CC(=O)N(C3CCC(=O)NC3=O)C2=O)c1 (centres unmarked) [Compound 73, N-(3-chloro-4-(trifluoromethyl)phenyl)-4-(dimethylamino)-3-(3-((1-(2,6-dioxopiperidin-3-yl)-2,5-dioxo-2,5-dihydro-1H-pyrrol-3-yl)amino)phenyl)butanamide]	0.0052	0.0044	–
CC(C)(CCNc1ccc(C(F)(F)F)c(Cl)c1)c1cccc(NC2=CC(=O)N(C3CCC(=O)NC3=O)C2=O)c1 (centres unmarked) [Compound 80, 3-(3-((3-(4-((3-chloro-4-(trifluoromethyl)phenyl)amino)-2-methylbutan-2-yl)phenyl)amino)-2,5-dioxo-2,5-dihydro-1H-pyrrol-1-yl)piperidine-2,6-dione]	0.05	0.024	–
